According to patent US20200179428A1, “CYCLIC PHOSPHATE SUBSTITUTED NUCLEOSIDE DERIVATIVES AND METHODS OF USE THEREOF FOR THE TREATMENT OF VIRAL DISEASES” (priority 2016, published 2020):
Read-outs that look alike come from different tables or passages of the source.

What was measured:
[1] = Cytotoxicity MTS assay (CellTiter 96 Aqueous One Solution) in replicon cells; assay type: cell-based; conditions: EDU, read-out: CC50 (EDU) Range; for CC50 at 3 days: HCV replicon cells (1b-Con1)
Protocol: (§1) To measure cell-based anti-HCV activity of the compounds of the present invention, replicon cells (1b-Con1) are seeded at 5000 cells/well in 96-well plates one day prior to treatment with a compound of the invention. Various concentrations of a test compound of the invention in DMSO are then added to the replicon cells, with the final concentration of DMSO at 0.5% and fetal bovine serum at 10% in the assay media. Cells are harvested three days post-dosing, and the replicon RNA level is determined using real-time RT-PCR (Taqman assay) with GAPDH RNA as endogenous control. EC50 values are calculated from experiments with 10 serial twofold dilutions of the inhibitor in triplicate. To measure cytotoxicity in replicon cells of an inhibitor, an MTS assay is performed according to the manufacturer's protocol for CellTiter 96 Aqueous One Solution Cell Proliferation Assay (Promega, Cat # G3580) three days post dosing on cells treated identically as in replicon activity assays. […] Cytotoxicity in other types of cells may be measured using the same MTS protocol.

replicon cells (1b-Con1) = experiment: Replicon activity assay (replicon RNA level by real-time RT-PCR, Taqman); assay type: cell-based; conditions: HCV replicon genotype 1b, read-out: EC50 (1b) Range
Protocol: as §1

C#C[C@]1(C)[C@@H]2O[P@](=O)(OCC[C@H](OC(C)=O)C(=O)OC(C)C)OC[C@H]2O[C@H]1n1ccc(=O)[nH]c1=O [Compound 51B]
CC50 at 3 days [1]: > 50 µM
EC50 (replicon cells (1b-Con1); Hepatitis C virus): ≤ 0.25 µM

CC(=O)O[C@@H](CO[P@]1(=O)OC[C@H]2O[C@@H](n3ccc(=O)[nH]c3=O)[C@](C)(N)[C@@H]2O1)[C@@H](OC(C)=O)C(=O)OC(C)C [Compound 54B]
CC50 at 3 days [1]: > 50 µM
EC50 (replicon cells (1b-Con1); Hepatitis C virus): > 10 µM

C#C[C@]1(C)[C@@H]2O[P@@](=O)(OCC[C@H](NC(=O)OC)C(=O)OC(C)C)OC[C@H]2O[C@H]1n1ccc(=O)[nH]c1=O [Compound 43A]
CC50 at 3 days [1]: > 50 µM
EC50 (replicon cells (1b-Con1); Hepatitis C virus): > 10 µM

CC(C)OC(=O)C(C)CCOP1(=O)OC[C@H]2O[C@@H](n3ccc(=O)[nH]c3=O)[C@](C)(N)[C@@H]2O1 (single isomer, unassigned) [Compound 10A1]
CC50 at 3 days [1]: > 50 µM
EC50 (replicon cells (1b-Con1); Hepatitis C virus): > 10 µM

CC(C)OC(=O)C(C)(C)CO[P@]1(=O)OC[C@H]2O[C@@H](n3ccc(=O)[nH]c3=O)[C@](C)(C#N)[C@@H]2O1 [Compound 16B]
CC50 at 3 days [1]: > 50 µM
EC50 (replicon cells (1b-Con1); Hepatitis C virus): > 10 µM

CC(C)OC(=O)[C@H](C)CCO[P@]1(=O)OC[C@H]2O[C@@H](n3cc(F)c4c(N)ncnc43)[C@](C)(Cl)[C@@H]2O1 [Compound 81B]
EC50 (replicon cells (1b-Con1); Hepatitis C virus): > 10 µM

CC(C)OC(=O)C1CC1CO[P@]1(=O)OC[C@H]2O[C@@H](n3ccc(=O)[nH]c3=O)[C@](C)(N)[C@@H]2O1 (stereo partly drawn) [Compound 47B]
CC50 at 3 days [1]: > 50 µM
EC50 (replicon cells (1b-Con1); Hepatitis C virus): > 10 µM

CCCCCOC(=O)C(C)CCO[P@]1(=O)OC[C@H]2O[C@@H](n3ccc(=O)[nH]c3=O)[C@](C)(N)[C@@H]2O1 (stereo partly drawn) [Compound 79B]
CC50 at 3 days [1]: > 50 µM
EC50 (replicon cells (1b-Con1); Hepatitis C virus): 1 to 10 µM

C#C[C@]1(C)[C@@H]2OP(=O)(OCC(C)CC(=O)OC3CCCC3)OC[C@H]2O[C@H]1n1ccc(=O)[nH]c1=O (single isomer, unassigned) [Compound 3A]
CC50 at 3 days [1]: > 50 µM
EC50 (replicon cells (1b-Con1)): > 10 µM

C#C[C@]1(C)[C@@H]2O[P@](=O)(OCC[C@H](NC(=O)OC)C(=O)OC(C)C)OC[C@H]2O[C@H]1n1ccc(=O)[nH]c1=O [Compound 43B]
CC50 at 3 days [1]: > 50 µM
EC50 (replicon cells (1b-Con1); Hepatitis C virus): > 10 µM

C#C[C@@]1(OC(=O)CCCCCC)[C@@H]2O[P@@](=O)(OCC[C@@H](C)C(=O)OC(C)C)OC[C@H]2O[C@H]1n1ccc(=O)[nH]c1=O [Compound 84A1]
CC50 at 3 days [1]: > 50 µM
EC50 (replicon cells (1b-Con1); Hepatitis C virus): ≤ 0.25 µM

CC(C)OC(=O)C(CCO[P@@]1(=O)OC[C@H]2O[C@@H](n3ccc(=O)[nH]c3=O)[C@](C)(N)[C@@H]2O1)C(C)C (stereo partly drawn) [Compound 24A]
CC50 at 3 days [1]: > 50 µM
EC50 (replicon cells (1b-Con1); Hepatitis C virus): > 10 µM

CO[C@H](CCOP1(=O)OC[C@H]2O[C@@H](n3ccc(=O)[nH]c3=O)[C@](C)(Cl)[C@@H]2O1)C(=O)OC(C)C (stereo partly drawn) [Compound 37A]
CC50 at 3 days [1]: > 50 µM
EC50 (replicon cells (1b-Con1); Hepatitis C virus): 0.25 to 1 µM

C#C[C@]1(C)[C@@H]2OP(=O)(OCCC(C)C(=O)OC(C)C)OC[C@H]2O[C@H]1n1ccc(=O)[nH]c1=O (stereo partly drawn) [Compound 1A]
CC50 [1]: > 50 µM
EC50 (replicon cells (1b-Con1); Hepatitis C virus): 1 to 10 µM

C#C[C@]1(C)[C@@H]2O[P@@](=O)(OC[C@@H](CC(=O)OC(C)C)OC)OC[C@H]2O[C@H]1n1ccc(=O)[nH]c1=O [Compound 62A]
CC50 at 3 days [1]: > 50 µM
EC50 (replicon cells (1b-Con1); Hepatitis C virus): > 10 µM

C#C[C@]1(C)[C@@H]2O[P@@](=O)(OCC[C@@H](OC)C(=O)OC(C)C)OC[C@H]2O[C@H]1n1ccc(=O)[nH]c1=O [Compound 57A]
CC50 at 3 days [1]: > 50 µM
EC50 (replicon cells (1b-Con1); Hepatitis C virus): 1 to 10 µM

CC(C)OC(=O)C(C)CCOP1(=O)OC[C@H]2O[C@@H](n3ccc(=O)[nH]c3=O)[C@](C)(N)[C@@H]2O1 (stereo partly drawn) [Compound 10A]
CC50 at 3 days [1]: > 50 µM
EC50 (replicon cells (1b-Con1); Hepatitis C virus): > 10 µM

C[C@@]1(N)[C@@H]2O[P@@](=O)(OCCC3CCOC3=O)OC[C@H]2O[C@H]1n1ccc(=O)[nH]c1=O (stereo partly drawn) [Compound 46A]
CC50 at 3 days [1]: > 50 µM
EC50 (replicon cells (1b-Con1); Hepatitis C virus): > 10 µM

CC(C)OC(=O)C1(CCO[P@]2(=O)OC[C@H]3O[C@@H](n4ccc(=O)[nH]c4=O)[C@](C)(N)[C@@H]3O2)CC1 [Compound 27B]
CC50 at 3 days [1]: > 50 µM
EC50 (replicon cells (1b-Con1); Hepatitis C virus): > 10 µM

C#C[C@]1(C)[C@@H]2O[P@@](=O)(OCCC(CO)C(=O)OC(C)C)OC[C@H]2O[C@H]1n1ccc(=O)[nH]c1=O (stereo partly drawn) [Compound 44A]
CC50 at 3 days [1]: > 50 µM
EC50 (replicon cells (1b-Con1); Hepatitis C virus): > 10 µM

C#C[C@@]1(OC(=O)CCC)[C@@H]2O[P@@](=O)(OCC[C@@H](C)C(=O)OC(C)C)OC[C@H]2O[C@H]1n1ccc(=O)[nH]c1=O [Compound 83A1]
CC50 at 3 days [1]: > 50 µM
EC50 (replicon cells (1b-Con1); Hepatitis C virus): ≤ 0.25 µM

C#C[C@]1(C)[C@@H]2O[P@@](=O)(OCC[C@H](OC(C)=O)C(=O)OC(C)C)OC[C@H]2O[C@H]1n1ccc(=O)[nH]c1=O [Compound 51A]
CC50 at 3 days [1]: > 50 µM
EC50 (replicon cells (1b-Con1); Hepatitis C virus): 1 to 10 µM

C#C[C@]1(C)[C@@H]2OP(=O)(OCC(C)CC(=O)OC(C)C)OC[C@H]2O[C@H]1n1ccc(=O)[nH]c1=O (stereo partly drawn) [Compound 6B]
CC50 at 3 days [1]: > 50 µM
EC50 (replicon cells (1b-Con1); Hepatitis C virus): 1 to 10 µM
